Assay results as given in patent US20210274789A1, “Antimicrobial Surface Treatment” (Kode Biotech Limited, priority 2018, published 2021).

Columns and labels:
Format in all cases: cell-based
[1] = test system: Staphylococcus aureus; experiment: Growth on bandage substrate treated with crystal violet alone or with a construct, resazurin colour change; parameters: key: No growth: dark blue (no growth); Reduced growth: purple (reduced growth); Growth: light red (growth)
Description: (§1) Swatches (1 cm diameter circular disks) were cut from the fabric portion of commercially available adhesive bandages (BAND-AID™ Quilt-Aid Technology, Johnson & Johnson). Volumes of 50 μL were dispended onto the surface of the swatches and the swatches allowed to air dry undisturbed at 80° C. The volumes consisted of dispersions or solutions in deionized water of 0.04% (w/v) crystal violet, 0.25 mM or 0.13 mM of the construct designated FSL-Se or the construct designated FSL-0, or water alone. A further volume of 100 μL of 0.04% (w/v) crystal violet in deionized water was dispensed onto the surface of the dried treated swatches and incubated undisturbed at room temperature for 10 minutes before rinsing as before with sterile deionized water.
(§2) Frozen stock cultures of bacterial isolates (Staphylococcus aureus, Staphylococcus epidermis, Escherichia coli or Pseudomonas aeruginosa) were streaked on Columbia sheep blood agar plates (Fort Richard Laboratories) and the plates incubated at 37° C. for 24 hours when separate colonies had developed. Two to three colonies were then transferred to a volume of 10 mL of 21 g/L Muller-Hinton (MH) broth, vortexed and the turbidity measured at 600 nm. The MH broth was diluted with a further volume so that the turbidity provided an optical density of 0.20 for the suspensions of Staphylococcus aureus and Staphylococcus epidermis and 0.08 for the suspensions of Escherichia coli and Pseudomonas aeruginosa. The diluted suspensions (around 10^8 cfu/mL) were serially diluted.
(§3) Individual treated swatches from each treatment group were placed at the base of separate wells in a 96-well cell culture plate. Volumes of 10 μL of serial dilutions of the suspensions of bacteria were dispensed onto the surface of the swatches (excluding the negative control). The inoculated swatches were then incubated undisturbed at room temperature for 10 minutes before dispensing into each well a volume of 50 μL of sterile deionized water and 150 μL of MH broth containing 0.02% resazurin sodium salt (Sigma-Aldrich).
(§4) The colour change (if any) observed in each well was observed after incubation of the plate for 24 hours at 37° C. Observations are recorded in Tables 1, 2, 3 and 4.

[2] = test system: Staphylococcus epidermis; experiment: as above; parameters: key: No growth: dark blue (no growth); Reduced growth: purple (reduced growth); Growth: light red (growth); settings: 0.25 mM construct in combination with crystal violet
Description: as §1, §2, §3, §4

[3] = test system: Escherichia coli; experiment: AgNP augmented antibacterial surface treatment of adhesive bandage swatches, resazurin; parameters: key: Growth: growth (growth); Inhibition: inhibition of growth (inhibition); No growth: prevention of growth (no growth); settings: 37° C. for 24 hours, duplicate swatches
Description: (§5) Preparation of negatively charged silver nanoparticles Negatively charged nanoparticles of silver (AgNPs) were prepared according to the following method. Quantities of 2 g glucose and 1 g polyvinylpyrrolidone (PVP) were dissolved in water and the resultant volume heated to 90° C. A quantity of 0.5 g of silver nitrate (AgNO3) was dissolved in a separate volume of 1 mL water and the two volumes then rapidly mixed. The mixed volume was maintained at a temperature of 90° C. for a period of time of one hour before cooling to room temperature. The AgNPs were collected by repeated (3 times) centrifugation at 14,000 rpm for a period of time of 60 minutes and resuspension in deionised filtered water (Milli-Q) to remove excess oxidation products, PVP and silver ion (Ag^+). The washed suspension of AgNPs was stored in the dark at 4° C. The AgNPs were characterised by […] dispersive spectroscopy (EDS) and UV-Vis absorbance scanning.
(§6) Swatches (5×5 mm squares) were cut from the fabric portion of commercially available adhesive bandages (BAND-AID™, Quilt-Aid Technology, Johnson & Johnson). A volume of 50 μL of a 0.13 mM dispersion of one of the following constructs was pipetted onto the surface of a swatch: FSL-biotin, FSL-0, FSL-HA17 kDa, FSL-Se and FSL-spm.
(§7) The swatches were air-dried at a temperature of 80° C. prior to washing (3 times) with sterile, filtered, deionised water (Milli-Q).
(§8) Controls were prepared without contacting the swatches with constructs or without washing following contacting the swatches with construct. Individual treated squares (including controls) were placed in the bottom of individual wells of a 96-well plate and inoculated with a volume of 10 μL of a serial dilution of a log phase culture in Mueller Hinton (MH) broth of one of the following bacteria: • Staphylococcus aureus • Staphylococcus epidermis • Escherichia coli • Pseudomonas aeruginosa
(§9) The inoculated swatches were then incubated for 10 minutes before dispensing into each well of the plate a volume of 50 μL of sterile, filtered, deionised water (Milli-Q) and 150 μL of MH broth containing 0.00266% (w/v) resazurin and incubating for a period of time of 24 hours at a temperature of 37° C. The observations of resulting growth (as indicated by a colour change from blue to red) from the estimated bacterial load (2.5×10^4 or 2.5×10^6 colony forming units (cfu)) for each treatment and species of bacterium are recorded in Tables 5 to 8.

[4] = test system: Pseudomonas aeruginosa; experiment: as above; parameters: key: Growth: growth (growth); Inhibition: inhibition of growth (inhibition); No growth: prevention of growth (no growth); settings: 37° C. for 24 hours, duplicate swatches
Description: as §5, §6, §7, §8, §9

[5] = test system: Staphylococcus aureus; experiment: as above; parameters: key: Growth: growth (growth); Inhibition: inhibition of growth (inhibition); No growth: prevention of growth (no growth); settings: 37° C. for 24 hours, duplicate swatches
Description: as §5, §6, §7, §8, §9

[6] = test system: Staphylococcus epidermis; experiment: as above; parameters: key: Growth: growth (growth); Inhibition: inhibition of growth (inhibition); No growth: prevention of growth (no growth); settings: 37° C. for 24 hours, duplicate swatches
Description: as §5, §6, §7, §8, §9

[7] = test system: Escherichia coli; experiment: Growth on bandage substrate treated with crystal violet alone or with a construct, resazurin colour change; parameters: key: No growth: dark blue (no growth); Reduced growth: purple (reduced growth); Growth: light red (growth); settings: crystal violet alone
Description: as §1, §2, §3, §4

[8] = test system: Pseudomonas aeruginosa; experiment: as above; parameters: key: No growth: dark blue (no growth); Reduced growth: purple (reduced growth); Growth: light red (growth); settings: crystal violet alone
Description: as §1, §2, §3, §4

[9] = unwashed following application of the FSL construct, load 1.99 × 10^4 cfu
[10] = unwashed following application of the FSL construct, load 1.99 × 10^6 cfu
[11] = washed following application of the FSL construct, load 1.99 × 10^4 cfu
[12] = washed following application of the FSL construct, load 1.99 × 10^6 cfu
[13] = unwashed following application of the FSL construct, load 1.75 x 10^4 cfu
[14] = unwashed following application of the FSL construct, load 1.75 × 10^6 cfu
[15] = washed following application of the FSL construct, load 1.75 x 10^4 cfu
[16] = washed following application of the FSL construct, load 1.75 x 10^6 cfu
[17] = unwashed following application of the FSL construct, load 2.53 × 10^4 cfu
[18] = unwashed following application of the FSL construct, load 2.53 × 10^6 cfu
[19] = washed following application of the FSL construct, load 2.53 × 10^4 cfu
[20] = washed following application of the FSL construct, load 2.53 × 10^6 cfu
[21] = unwashed following application of the FSL construct, load 2.11 × 10^4 cfu
[22] = unwashed following application of the FSL construct, load 2.11 × 10^6 cfu
[23] = washed following application of the FSL construct, load 2.11 × 10^4 cfu
[24] = washed following application of the FSL construct, load 2.11 × 10^6 cfu
[25] = challenge 1.5 × 10^4 to 10^5 cfu

Question: Which results are given for NCSeCH2CO-CMG(2)-Ad-DOPE [FSL-Se]?
Answer: Growth monitored by colour change of resazurin containing MH broth ([1]; 0.25 mM construct in combination with crystal violet, challenge 1.5 × 10^4 to 10^5 cfu): No growth; Growth monitored by colour change of resazurin containing MH broth ([1]; 0.25 mM construct in combination with crystal violet, challenge 10^3 to 5 × 10^3 cfu): No growth; Growth monitored by colour change of resazurin containing MH broth ([1]; 0.25 mM construct in combination with crystal violet, challenge >10^5 cfu): No growth; Growth monitored by colour change of resazurin containing MH broth ([2]; challenge 10^3 to 5 × 10^3 cfu): No growth; Growth monitored by colour change of resazurin containing MH broth ([2]; challenge 10^4 to 1.5 × 10^4 cfu): No growth; Growth monitored by colour change of resazurin containing MH broth ([2]; challenge >10^5 cfu): No growth; Observations of growth, inhibition of growth or prevention of growth [3, 9]: Growth; Observations of growth, inhibition of growth or prevention of growth [3, 10]: Growth; Observations of growth, inhibition of growth or prevention of growth [3, 11]: Growth; Observations of growth, inhibition of growth or prevention of growth [3, 12]: Growth; Observations of growth, inhibition of growth or prevention of growth [4, 13]: Growth; Observations of growth, inhibition of growth or prevention of growth [4, 14]: Growth; Observations of growth, inhibition of growth or prevention of growth [4, 15]: Growth; Observations of growth, inhibition of growth or prevention of growth [4, 16]: Growth; Observations of growth, inhibition of growth or prevention of growth [5, 17]: Growth; Observations of growth, inhibition of growth or prevention of growth [5, 18]: Growth; Observations of growth, inhibition of growth or prevention of growth [5, 19]: Growth; Observations of growth, inhibition of growth or prevention of growth [5, 20]: Growth; Observations of growth, inhibition of growth or prevention of growth [6, 21]: Growth; Observations of growth, inhibition of growth or prevention of growth [6, 22]: Growth; Observations of growth, inhibition of growth or prevention of growth [6, 23]: Growth; Observations of growth, inhibition of growth or prevention of growth [6, 24]: Growth

Question: For `CN(C)c1ccc(C(=C2C=CC(=[N+](C)C)C=C2)c2ccc(N(C)C)cc2)cc1.[Cl-]` [Crystal violet, N-[4-[bis[4-(dimethylamino)phenyl]methylene]-2,5-cyclohexadien-1-ylidene]-N-methyl-methanaminium chloride], which “Growth monitored by colour change of resazurin containing MH broth” value (“Growth monitored by colour change” below) [7, 25] is on record?
Answer: Growth

Question: What about the “Growth monitored by colour change” value ([7]; challenge 5 × 10^3 to 10^4 cfu) of the same compound?
Answer: Growth

Question: And the “Growth monitored by colour change” value ([7]; challenge 500 to 1,000 cfu)?
Answer: Growth

Question: What about the “Growth monitored by colour change” value ([7]; challenge >10^5 cfu) of the same compound?
Answer: Growth

Question: And the “Growth monitored by colour change” value [8, 25]?
Answer: Growth

Question: What about the “Growth monitored by colour change” value ([8]; challenge 5 × 10^3 to 10^4 cfu) of the same compound?
Answer: Growth

Question: And the “Growth monitored by colour change” value ([8]; challenge 10^3 to 5 × 10^3 cfu)?
Answer: Growth

Question: And the “Growth monitored by colour change” value ([8]; challenge <500 cfu)?
Answer: Growth

Question: And the “Growth monitored by colour change” value ([8]; challenge >10^5 cfu)?
Answer: Growth

Question: And the “Growth monitored by colour change” value ([1]; crystal violet alone, challenge 500 to 1,000 cfu)?
Answer: No growth

Question: What about the “Observations of growth, inhibition of growth or prevention of growth” value (“Observations of growth, inhibition … of growth” for short) [3, 9] of the same compound?
Answer: Growth

Question: What about the “Observations of growth, inhibition … of growth” value [3, 10] of the same compound?
Answer: Growth

Question: And the “Observations of growth, inhibition … of growth” value [3, 11]?
Answer: Growth

Question: And the “Observations of growth, inhibition … of growth” value [3, 12]?
Answer: Growth

Question: And the “Observations of growth, inhibition … of growth” value [4, 13]?
Answer: Growth

Question: And the “Observations of growth, inhibition … of growth” value [4, 14]?
Answer: Growth

Question: And the “Observations of growth, inhibition … of growth” value [4, 15]?
Answer: Growth

Question: And the “Observations of growth, inhibition … of growth” value [4, 16]?
Answer: Growth

Question: And the “Observations of growth, inhibition … of growth” value [5, 17]?
Answer: Growth

Question: And the “Observations of growth, inhibition … of growth” value [5, 18]?
Answer: Growth

Question: And the “Observations of growth, inhibition … of growth” value [5, 19]?
Answer: Growth

Question: And the “Observations of growth, inhibition … of growth” value [5, 20]?
Answer: Growth

Question: And the “Observations of growth, inhibition … of growth” value [6, 21]?
Answer: Inhibition

Question: What about the “Observations of growth, inhibition … of growth” value [6, 22] of the same compound?
Answer: Growth

Question: And the “Observations of growth, inhibition … of growth” value [6, 23]?
Answer: Inhibition

Question: What about the “Observations of growth, inhibition … of growth” value [6, 24] of the same compound?
Answer: Growth
